Several values for one entry are separate records, joined by “and”; a condition that tells them apart may be missing. Identical values can stand only once.
Key:
[1] = test system: type 2 diabetes patients inadequately controlled on existing insulin therapy; assay: Phase 2 study M102-20303: HbA1c; format: in vivo, human; details: for reduction from baseline in HbA1c: all patients, endpoint at week 16
Method: (§1) FIGS. 5-7 were generated based on a randomized, double-blind, placebo-controlled phase 2 study, M102-20303. In this study, two dose levels of (−)-halofenate (200 mg and 400 mg) or placebo were given orally daily for 12 weeks to a total of 217 type 2 diabetes patients who were inadequately controlled on existing insulin therapy. In addition to their stable dose of insulin, these patients received the study drug for 12 weeks, and followed up for an additional four weeks. In this study, change in HbA1c from baseline at week 16 was the primary endpoint and changes in fasting plasma glucose and triglyceride from baseline at Week 12 were secondary endpoints. In order to maintain the blinded status, the HbA1c results following administration of double-blind study medication were not available to any parties until the studies were unblinded. In this study, patients were not allowed to add any other glucose lowering agent(s) or to change their existing doses of insulin. Patients who added lipid lowering agent(s) or changed their existing doses of lipid lowering agent(s) were excluded from the triglyceride analysis. Patients who received (−)-halofenate during the study but had no measurable (−)-halofenate in the blood were defined as non-compliant and were excluded from the analysis.

[2] = test system: type 2 diabetes patients inadequately controlled on existing insulin therapy; assay: Phase 2 study M102-20303: triglycerides; format: in vivo, human; details: CKD2 and CKD3 (mild to moderate CKD) patients, 400 mg daily for 12 weeks
Method: as §1

type 2 diabetic patients [3] = assay: Pooled analysis of four phase 2 studies: change in serum uric acid (sUA) from baseline; format: in vivo, human; details: for reduction in serum uric acid from baseline: all analysed patients, 12-24 weeks (pooled)
Method: (§2) FIGS. 1-4 were generated based on the pooled analysis of four phase 2 studies conducted with (−)-halofenate in type 2 diabetic patients. In these studies a total of 955 patients were enrolled. In the M102-20303 study, two dose levels of (−)-halofenate (200 mg and 400 mg) or placebo were given orally daily to a total of 217 patients for 12 weeks. In the M102-20405 study, (−)-halofenate at a dose of 600 mg or placebo was given daily to a total of 100 patients for 12 weeks. In the M102-20509 study, three dose levels of (−)-halofenate (200 mg, 400 mg and 600 mg), Actos® 30 mg or placebo were given orally daily to a total of 396 patients for 16 weeks. In M102-20814 study, two dose levels of (−)-halofenate (400 mg and 600 mg), Actos® 30-45 mg or placebo were given orally daily to a total of 242 patients for 24 weeks. In these studies, change in serum uric acid (sUA) from baseline was one of the important endpoints. In order to maintain the blinded status, the sUA results following administration of double-blind study medication were not available to any parties until the studies were unblinded. Patients who added or changed the existing doses of medications that are known to influence serum uric acid levels were excluded from the serum uric acid analysis. Patients received either (−)-halofenate or matching placebo during the study were included in this exploratory analysis. Patients who received (−)-halofenate during the study but had no measurable (−)-halofenate in the blood were defined as non-compliant and were excluded from the analysis. This analysis indicated statistically significant dose dependent reduction in serum uric acid from baseline: 2% in the placebo group (n=252), −11% in the 200 mg group (n=125), −20% in the 400 mg group (n=174), and −27% in the 600 mg group (n=159); p<0.0001 for all dose groups. In order to evaluate the sUA response in CKD patients, in addition to the analysis described above, the patients were subdivided based on their baseline kidney function status. The kidney function status of each patient was evaluated by estimating the creatinine clearance (glomerular filtration rate) using the Cockcroft-Gault equation [Cockcroft-Gault GFR=(140−age)×(Body weight in kg)×(0.85 if female)/(72×serum creatinine)]. For estimating the baseline creatinine clearance, baseline body weight (kg) and baseline serum creatinine values were used and similarly, for estimating the end-of-the study creatinine clearance, end-of-study body weight and end-of-study serum creatinine values were used. […] In this analysis there were no patients with CKD4 (severe CKD) or CKD5 (kidney failure).

[4] = test system: type 2 diabetes patients inadequately controlled on existing insulin therapy; assay: Phase 2 study M102-20303: fasting plasma glucose (FPG); format: in vivo, human; details: for mean observed change in FPG from baseline at Week 12: all patients
Method: as §1

type 2 diabetic patients [5] = assay: Pooled analysis of four phase 2 studies: estimated creatinine clearance (Cockcroft-Gault), kidney function status; format: in vivo, human; details: for Mean Baseline estimated Cr Cl (mL/min) (second column of that head, c3): all analysed patients
Method: as §2
The changes in estimated creatinine clearance values in the 200 mg, 400 mg, and 600 mg groups compared to placebo group were not statistically significant.

gout patients = details: monotherapy at 40, 80, 120, 160 and 240 mg/day; cited from earlier work
[6] = CKD2 and CKD3 (mild to moderate CKD) patients, 400 mg daily for 12 weeks

## CC(=O)NCCOC(=O)[C@H](Oc1cccc(C(F)(F)F)c1)c1ccc(Cl)cc1 [(−)-halofenate, (−)-(R)-(4-chloro-phenyl)-(3-trifluoromethyl-phenoxy)-acetic acid 2-acetylamino-ethyl ester]
[1]; [6]
  Change in HbA1c (%): −1.1%
  End-of-study HbA1c (%): 8.1%
[1]; 200 mg daily for 12 weeks on stable insulin
  reduction from baseline in HbA1c: −0.9%
[1]; 400 mg daily for 12 weeks on stable insulin
  reduction from baseline in HbA1c: −1.0%
[2]
  Change in triglyceride: -33.6 mg/dL
  End-of-study triglyceride: 168.6 mg/dL
Type 2 diabetic patients [3]; 200 mg daily, CKD2 and CKD3 patients
  Mean Change in sUA (%): −14% and −14.30%
Type 2 diabetic patients [3]; 400 mg daily, CKD2 and CKD3 patients
  Mean Change in sUA (%): −21% and −21.30%
Type 2 diabetic patients [3]; 600 mg daily, CKD2 (mild CKD) patients
  Mean Change in sUA (%): −28% and −28.2%
Type 2 diabetic patients [3]; 600 mg daily, CKD2 and CKD3 patients
  Mean Change in sUA (%): −29%
Type 2 diabetic patients [3]; 600 mg daily, CKD3 (moderate CKD) patients
  Mean Change in sUA (%): −36% and −35.6%
Type 2 diabetic patients [3]; 600 mg daily, Normal and CKD1 patients
  Mean Change in sUA (%): −25% and −25.3%
Type 2 diabetic patients [3]; 200, 400 and 600 mg daily with low to medium doses of aspirin (<= about 325 mg/day) vs no aspirin
  urate-lowering effect when co-administered with aspirin: does not result in clinically significant loss of the urate-lowering effect
Type 2 diabetic patients [3]; 200, 400 and 600 mg daily with thiazide or other diuretics vs no diuretics
  urate-lowering effect when co-administered with diuretics: does not result in clinically significant loss of the urate-lowering effect
Type 2 diabetic patients [3]; 200 mg orally daily
  reduction in serum uric acid from baseline: −11%
Type 2 diabetic patients [3]; 400 mg orally daily
  reduction in serum uric acid from baseline: −20%
Type 2 diabetic patients [3]; 600 mg orally daily
  reduction in serum uric acid from baseline: −27%
Type 2 diabetic patients [3]; aspirin treated patients (<= about 325 mg/day), 200 mg daily
  change in serum uric acid (sUA) from baseline: −13%
Type 2 diabetic patients [3]; aspirin treated patients (<= about 325 mg/day), 400 mg daily
  change in serum uric acid (sUA) from baseline: −20%
Type 2 diabetic patients [3]; aspirin treated patients (<= about 325 mg/day), 600 mg daily
  change in serum uric acid (sUA) from baseline: −27%
Type 2 diabetic patients [3]; patients not taking any diuretics, 200 mg daily
  change in serum uric acid (sUA) from baseline: −11%
Type 2 diabetic patients [3]; patients not taking any diuretics, 400 mg daily
  change in serum uric acid (sUA) from baseline: −21%
Type 2 diabetic patients [3]; patients not taking any diuretics, 600 mg daily
  change in serum uric acid (sUA) from baseline: −27%
Type 2 diabetic patients [3]; patients not taking aspirin, 200 mg daily
  change in serum uric acid (sUA) from baseline: −10%
Type 2 diabetic patients [3]; patients not taking aspirin, 400 mg daily
  change in serum uric acid (sUA) from baseline: −20%
Type 2 diabetic patients [3]; patients not taking aspirin, 600 mg daily
  change in serum uric acid (sUA) from baseline: −26%
Type 2 diabetic patients [3]; patients taking any diuretics, 200 mg daily
  change in serum uric acid (sUA) from baseline: −12%
Type 2 diabetic patients [3]; patients taking any diuretics, 400 mg daily
  change in serum uric acid (sUA) from baseline: −15%
Type 2 diabetic patients [3]; patients taking any diuretics, 600 mg daily
  change in serum uric acid (sUA) from baseline: −24%
Type 2 diabetic patients [3]; thiazide diuretic treated patients, 200 mg daily
  change in serum uric acid (sUA) from baseline: −16%
Type 2 diabetic patients [3]; thiazide diuretic treated patients, 400 mg daily
  change in serum uric acid (sUA) from baseline: −17%
Type 2 diabetic patients [3]; thiazide diuretic treated patients, 600 mg daily
  change in serum uric acid (sUA) from baseline: −24%
[4]; [6]
  Change in FPG (%): −18.0% and −17.6%
  End-of-study FPG: 136.5 mg/dL
[4]; 200 mg daily
  mean observed change in FPG from baseline at Week 12: -10.9 mg/dL
[4]; 400 mg daily
  mean observed change in FPG from baseline at Week 12: -29.2 mg/dL
Type 2 diabetic patients [5]; 200 mg daily
  Mean Baseline estimated Cr Cl (mL/min) (second column of that head, c3): 102.4 mL/min
Type 2 diabetic patients [5]; 200 mg, 400 mg and 600 mg per day (FIG. 4)
  change in CrCL as compared to placebo: no clinically significant change in CrCL
Type 2 diabetic patients [5]; 400 mg daily
  Mean Baseline estimated Cr Cl (mL/min) (second column of that head, c3): 103.5 mL/min
Type 2 diabetic patients [5]; 600 mg daily
  Mean Baseline estimated Cr Cl (mL/min) (second column of that head, c3): 100.6 mL/min

## O=c1[nH]cnc2c(CN3C[C@H](CO)[C@@H](O)C3)c[nH]c12 [Ulodesine, 7-(((3R,4R)-3-hydroxy-4-(hydroxymethyl)pyrrolidin-1-yl)methyl)-3H-pyrrolo[3,2-d]pyrimidin-4(5H)-one]
Gout patients
  effect on serum uric acid: rapidly and significantly reduced serum uric acid
